Results as given in patent US20080045507A1, “SUBSTITUTED BENZAMIDE MODULATORS OF THE HISTAMINE H3 RECEPTOR” (priority 2006, published 2008).

Legend:
human H3 receptor [1] = target: T1, human H3 receptor (Homo sapiens, UniProt Q9Y5N1); assay: H3 receptor binding, cloned human H3 receptor stably expressed in SK-N-MC cells; conditions: average of results
T1 construct: expressed in transfected cells
Experimental: (§1) Binding of compounds to the cloned human and rat H3 receptors, stably expressed in SK-N-MC cells, was performed as described by Barbier, A. J. et al. (Br. J. Pharmacol. 2004, 143(5), 649-661). Data for compounds tested in these assays are presented in Table 1 (human) and Table 2 (rat), as an average of the results obtained.

rat H3 receptor [2] = target: T2, rat H3 receptor (Rattus norvegicus, UniProt Q9QYN8); assay: Cyclic AMP accumulation, SK-N-MC subline with reporter construct and rat H3 receptor; assay type: cell-based; conditions: cAMP accumulation, SK-N-MC reporter cells expressing rat H3; average of results; read-out: Rat pA2 (converted)
T2 construct: expressed in transfected cells
T2 sequence (Q9QYN8 whole entry): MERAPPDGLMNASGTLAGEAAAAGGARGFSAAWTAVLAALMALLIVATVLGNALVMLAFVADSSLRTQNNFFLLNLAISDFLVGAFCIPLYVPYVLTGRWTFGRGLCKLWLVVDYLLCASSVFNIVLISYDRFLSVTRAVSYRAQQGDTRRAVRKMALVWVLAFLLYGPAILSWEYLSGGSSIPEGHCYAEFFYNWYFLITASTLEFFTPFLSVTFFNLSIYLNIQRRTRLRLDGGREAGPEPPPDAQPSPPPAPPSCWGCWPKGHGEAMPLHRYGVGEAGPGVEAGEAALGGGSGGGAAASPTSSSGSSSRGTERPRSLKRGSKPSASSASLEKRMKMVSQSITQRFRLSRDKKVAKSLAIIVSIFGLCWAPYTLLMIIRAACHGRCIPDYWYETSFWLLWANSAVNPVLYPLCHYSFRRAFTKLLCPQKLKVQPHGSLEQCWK
Excerpt: (§2) Sublines of SK-N-MC cells were created that expressed a reporter construct and either the human or rat H3 receptor. The pA2 values were obtained as described by Barbier et al. (2004). Data for compounds tested in these assays are presented in Table 3, as an average of the results obtained (NT=not tested).

rat H3 receptor [3] = target: T2, rat H3 receptor; assay: H3 receptor binding, cloned rat H3 receptor stably expressed in SK-N-MC cells; conditions: average of results
Experimental: as §1

human H3 receptor [4] = target: T1, human H3 receptor; assay: Cyclic AMP accumulation, SK-N-MC subline with reporter construct and human H3 receptor; assay type: cell-based; conditions: cAMP accumulation, SK-N-MC reporter cells expressing human H3; average of results; read-out: Human pA2 (converted)
Excerpt: as §2

T1 sequence (Q9Y5N1 whole entry): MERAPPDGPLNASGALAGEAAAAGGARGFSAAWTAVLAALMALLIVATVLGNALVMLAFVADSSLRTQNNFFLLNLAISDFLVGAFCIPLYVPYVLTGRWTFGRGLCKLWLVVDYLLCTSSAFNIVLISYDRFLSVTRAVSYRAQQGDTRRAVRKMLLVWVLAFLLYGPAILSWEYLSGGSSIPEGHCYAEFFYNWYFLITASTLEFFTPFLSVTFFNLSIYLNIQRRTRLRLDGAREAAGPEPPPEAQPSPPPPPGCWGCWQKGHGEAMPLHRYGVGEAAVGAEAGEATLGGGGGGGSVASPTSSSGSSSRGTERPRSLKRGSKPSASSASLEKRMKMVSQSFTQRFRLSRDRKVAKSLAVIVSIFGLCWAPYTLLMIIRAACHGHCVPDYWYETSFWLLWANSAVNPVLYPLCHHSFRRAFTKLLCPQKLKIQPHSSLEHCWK

SMILES | Ki (human H3 receptor [1]) | also measured
O=C(c1ccc(C(O)C2CCCCC2)cc1)N1CCN(C2CC2)CC1 (stereo not drawn) [Example 24, [4-(Cyclohexyl-hydroxy-methyl)-phenyl]-(4-cyclopropyl-piperazin-1-yl)-methanone] | 19 nM | –
CCC(C)N1CCN(C(=O)c2ccc(CO)cc2)CC1 (stereo not drawn) [Example 51, (4-sec-Butyl-piperazin-1-yl)-(4-hydroxymethyl-phenyl)-methanone] | 530 nM | –
CC(O)c1ccc(C(=O)N2CCN(C(C)C)CC2)cc1 (stereo not drawn) [Example 4, [4-(1-Hydroxy-ethyl)-phenyl]-(4-isopropyl-piperazin-1-yl)-methanone] | 58 nM | –
CC(C)N1CCN(C(=O)c2ccc(CO)cc2)CC1 [Example 6, (4-Hydroxymethyl-phenyl)-(4-isopropyl-piperazin-1-yl)-methanone] | 164 nM | Kb (rat H3 receptor [2]): 295 nM
CC(C)N1CCCN(C(=O)c2ccc(CO)cc2)CC1 [Example 8, (4-Hydroxymethyl-phenyl)-(4-isopropyl-[1,4]diazepan-1-yl)-methanone] | 31 nM | –
O=C(c1ccc(CO)cc1)N1CCN(C2CCC2)CC1 [Example 18, (4-Cyclobutyl-piperazin-1-yl)-(4-hydroxymethyl-phenyl)-methanone] | 43 nM | –
CCc1ccc(C(=O)N2CCN(C3CCC3)CC2)cc1 [Example 34, (4-Cyclobutyl-piperazin-1-yl)-(4-ethyl-phenyl)-methanone] | 28 nM | –
O=C(c1ccc(CO)cc1)N1CCCN(C2CC2)CC1 [Example 28, (4-Cyclopropyl-[1,4]diazepan-1-yl)-(4-hydroxymethyl-phenyl)-methanone] | 20 nM | –
CC(C)N1CCN(C(=O)c2ccc(C(O)c3ccccc3)cc2)CC1 (stereo not drawn) [Example 3, [4-(Hydroxy-phenyl-methyl)-phenyl]-(4-isopropyl-piperazin-1-yl)-methanone] | 14 nM | –
CCCc1ccc(C(=O)N2CCN(C3CCC3)CC2)cc1 [Example 38, (4-Cyclobutyl-piperazin-1-yl)-(4-propyl-phenyl)-methanone] | 31 nM | –
CC(C)(O)c1ccc(C(=O)N2CCN(C3CCC3)CC2)cc1 [Example 41, (4-Cyclobutyl-piperazin-1-yl)-[4-(1-hydroxy-1-methyl-ethyl)-phenyl]-methanone] | 32 nM | –
CCC(O)c1ccc(C(=O)N2CCN(C3CC3)CC2)cc1 (stereo not drawn) [Example 48, (4-Cyclopropyl-piperazin-1-yl)-[4-(1-hydroxy-propyl)-phenyl]-methanone] | 221 nM | –
CC(C)C(O)c1ccc(C(=O)N2CCN(C3CCC3)CC2)cc1 (stereo not drawn) [Example 16, (4-Cyclobutyl-piperazin-1-yl)-[4-(1-hydroxy-2-methyl-propyl)-phenyl]-methanone] | 15 nM | –
CCC(O)c1ccc(C(=O)N2CCN(C(C)C)CC2)cc1 (stereo not drawn) [Example 2, [4-(1-Hydroxy-propyl)-phenyl]-(4-isopropyl-piperazin-1-yl)-methanone] | 32 nM | –
O=C(c1ccc(C(O)c2ccccc2)cc1)N1CCN(C2CC2)CC1 (stereo not drawn) [Example 25, (4-Cyclopropyl-piperazin-1-yl)-[4-(hydroxy-phenyl-methyl)-phenyl]-methanone] | 59 nM | –
CCCCN1CCN(C(=O)c2ccc(CO)cc2)CC1 [Example 50, (4-Butyl-piperazin-1-yl)-(4-hydroxymethyl-phenyl)-methanone] | 55 nM | –
CCCCCc1ccc(C(=O)N2CCN(C3CCC3)CC2)cc1 [Example 40, (4-Cyclobutyl-piperazin-1-yl)-(4-pentyl-phenyl)-methanone] | 17 nM | –
CC(O)c1ccc(C(=O)N2CCCN(C(C)C)CC2)cc1 (stereo not drawn) [Example 12, [4-(1-Hydroxy-ethyl)-phenyl]-(4-isopropyl-[1,4]diazepan-1-yl)-methanone] | 17 nM | –
CCC(O)c1ccc(C(=O)N2CCCN(C(C)C)CC2)cc1 (stereo not drawn) [Example 10, [4-(1-Hydroxy-propyl)-phenyl]-(4-isopropyl-[1,4]diazepan-1-yl)-methanone] | 9 nM | Ki (rat H3 receptor [3]): 509 nM
CC(C)c1ccc(C(=O)N2CCN(C3CCC3)CC2)cc1 [Example 35, (4-Cyclobutyl-piperazin-1-yl)-(4-isopropyl-phenyl)-methanone] | 11 nM | –
CC(C)C(O)c1ccc(C(=O)N2CCN(C3CC3)CC2)cc1 (stereo not drawn) [Example 26, (4-Cyclopropyl-piperazin-1-yl)-[4-(1-hydroxy-2-methyl-propyl)-phenyl]-methanone] | 84 nM | –
O=C(c1ccc(CO)cc1)N1CCN(C2CC2)CC1 [Example 49, (4-Cyclopropyl-piperazin-1-yl)-(4-hydroxymethyl-phenyl)-methanone] | 586 nM | –
CCC(O)c1ccc(C(=O)N2CCN(C3CCC3)CC2)cc1 (stereo not drawn) [Example 15, (4-Cyclobutyl-piperazin-1-yl)-[4-(1-hydroxy-propyl)-phenyl]-methanone] | 12 nM | –
CCCCc1ccc(C(=O)N2CCN(C3CCC3)CC2)cc1 [Example 39, (4-Butyl-phenyl)-(4-cyclobutyl-piperazin-1-yl)-methanone] | 24 nM | –

Further compounds by falling Ki (human H3 receptor [1]), results first:

Ki (human H3 receptor [1]) | SMILES | also measured
9 nM | O=C(c1ccc(C2CCCCC2)cc1)N1CCN(C2CCC2)CC1 [Example 36, (4-Cyclobutyl-piperazin-1-yl)-(4-cyclohexyl-phenyl)-methanone] | Ki (rat H3 receptor [3]): 79 nM
7 nM | CC(C)N1CCN(C(=O)c2ccc(C(O)C3CCCCC3)cc2)CC1 (stereo not drawn) [Example 1, [4-(Cyclohexyl-hydroxy-methyl)-phenyl]-(4-isopropyl-piperazin-1-yl)-methanone] | –
7 nM | O=C(c1ccc(Cc2ccccc2)cc1)N1CCN(C2CCC2)CC1 [Example 37, (4-Benzyl-phenyl)-(4-cyclobutyl-piperazin-1-yl)-methanone] | –
7 nM | O=C(c1ccc(C2(O)CCCCC2)cc1)N1CCN(C2CCC2)CC1 [Example 42, (4-Cyclobutyl-piperazin-1-yl)-[4-(1-hydroxy-cyclohexyl)-phenyl]-methanone] | –
6 nM | CC(C)C(O)c1ccc(C(=O)N2CCCN(C(C)C)CC2)cc1 (stereo not drawn) [Example 13, [4-(1-Hydroxy-2-methyl-propyl)-phenyl]-(4-isopropyl-[1,4]diazepan-1-yl)-methanone] | –
6 nM | CC(C)C(O)c1ccc(C(=O)N2CCN(C(C)C)CC2)cc1 (stereo not drawn) [Example 5, [4-(1-Hydroxy-2-methyl-propyl)-phenyl]-(4-isopropyl-piperazin-1-yl)-methanone] | –
5 nM | CC(C)(C)c1ccc(C(=O)N2CCN(C3CCC3)CC2)cc1 [Example 33, (4-tert-Butyl-phenyl)-(4-cyclobutyl-piperazin-1-yl)-methanone] | Ki (rat H3 receptor [3]): 152 nM; Kb (rat H3 receptor [2]): 13.5 nM; Kb (human H3 receptor [4]): 3.63 nM
4 nM | O=C(c1ccc(C(O)c2ccccc2)cc1)N1CCN(C2CCC2)CC1 (stereo not drawn) [Example 14, (4-cyclobutyl-piperazin-1-yl)-[4-(hydroxy-phenyl-methyl)-phenyl]-methanone] | –
4 nM | O=C(c1ccc(C(O)C2CCCCC2)cc1)N1CCN(C2CCC2)CC1 (stereo not drawn) [Example 17, (4-Cyclobutyl-piperazin-1-yl)-[4-(cyclohexyl-hydroxy-methyl)-phenyl]-methanone] | –
4 nM | CCC(O)c1ccc(C(=O)N2CCCN(C3CC3)CC2)cc1 (stereo not drawn) [Example 31, (4-Cyclopropyl-[1,4]diazepan-1-yl)-[4-(1-hydroxy-propyl)-phenyl]-methanone] | Ki (rat H3 receptor [3]): 205 nM
3 nM | CC(C)N1CCCN(C(=O)c2ccc(C(=O)C3CCCCC3)cc2)CC1 [Example 9, (4-Cyclohexanecarbonyl-phenyl)-(4-isopropyl-[1,4]diazepan-1-yl)-methanone] | –
3 nM | CC(C)C(O)c1ccc(C(=O)N2CCCN(C3CC3)CC2)cc1 (stereo not drawn) [Example 32, (4-Cyclopropyl-[1,4]diazepan-1-yl)-[4-(1-hydroxy-2-methyl-propyl)-phenyl]-methanone] | Kb (rat H3 receptor [2]): 12 nM; Kb (human H3 receptor [4]): 0.794 nM
2 nM | O=C(c1ccc(CO)cc1)N1CCCN(C2CCC2)CC1 [Example 23, (4-Cyclobutyl-[1,4]diazepan-1-yl)-(4-hydroxymethyl-phenyl)-methanone] | –
2 nM | CC(C)N1CCCN(C(=O)c2ccc(C(O)c3ccccc3)cc2)CC1 (stereo not drawn) [Example 11, [4-(Hydroxy-phenyl-methyl)-phenyl]-(4-isopropyl-[1,4]diazepan-1-yl)-methanone] | Ki (rat H3 receptor [3]): 78 nM
1 nM | O=C(c1ccc(C(O)c2ccccc2)cc1)N1CCCN(C2CCC2)CC1 (stereo not drawn) [Example 21, (4-Cyclobutyl-[1,4]diazepan-1-yl)-[4-(hydroxy-phenyl-methyl)-phenyl]-methanone] | –
1 nM | CC(C)C(O)c1ccc(C(=O)N2CCCN(C3CCC3)CC2)cc1 (stereo not drawn) [Example 22, (4-Cyclobutyl-[1,4]diazepan-1-yl)-[4-(1-hydroxy-2-methyl-propyl)-phenyl]-methanone] | –
1 nM | CCC(O)c1ccc(C(=O)N2CCCN(C3CCC3)CC2)cc1 (stereo not drawn) [Example 19, (4-Cyclobutyl-[1,4]diazepan-1-yl)-[4-(1-hydroxy-propyl)-phenyl]-methanone] | Kb (rat H3 receptor [2]): 3.31 nM; Kb (human H3 receptor [4]): 0.182 nM
1 nM | O=C(c1ccc(C(=O)N2CCCN(C3CC3)CC2)cc1)C1CCCCC1 [Example 29, (4-Cyclohexanecarbonyl-phenyl)-(4-cyclopropyl-[1,4]diazepan-1-yl)-methanone] | Kb (rat H3 receptor [2]): 6.92 nM; Kb (human H3 receptor [4]): 0.912 nM
1 nM | O=C(c1ccc(C(O)C2CCCCC2)cc1)N1CCCN(C2CCC2)CC1 (stereo not drawn) [Example 20, (4-Cyclobutyl-[1,4]diazepan-1-yl)-[4-(cyclohexyl-hydroxy-methyl)-phenyl]-methanone] | –
